The source of these data is patent US20240376121A1, “COMPOUNDS AND USES THEREOF” (Foghorn Therapeutics Inc., priority 2021, published 2024).

For test [1], the target named is T1, HiBit-BRM fusion protein (Homo sapiens, UniProt P51531).
T1 construct: expressed in transfected cells
The test is described as follows: HiBiT-BRM cell-based degradation assay (Nano-Glo HiBiT Lytic Detection). The following applies: stable HeLa cell line expressing HiBiT-BRM, 24 h incubation; for BRM HiBit Degradation Maximum (%): top dose 30 μM; for DC50: read-out: BRM HiBit Degradation IC50. An outline of the steps: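 Luminescence from reconstituted NanoBiT luciferase in lysed HeLa HiBiT-BRM cells served as the measure of remaining BRM after 24 h treatment. Compounds were tested from 30 μM final downward in 3-fold steps. DMSO and 2 μM of a standard BRM/BRG1 degrader defined the scale limits.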
For orientation: The HiBiT peptide binds its large partner to form an active luciferase.

The target in test [2] is T2, HiBit-BRG1 fusion protein (Homo sapiens, UniProt P51532).
T2 construct: expressed in transfected cells
The test is described as follows: HiBiT-BRG1 cell-based degradation assay (Nano-Glo HiBiT Lytic Detection). The settings on record: stable HeLa cell line expressing HiBit-BRG1 and LgBit, 24 h incubation; for Dmax: top dose 30 μM, read-out: BRG1 HiBit Degradation Maximum (%); for DC50: read-out: BRMG1 HiBit Degradation IC50. The method in brief:
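HeLa cells stably expressing HiBiT-BRG1 and LgBiT treated 24 h with 10-point 3-fold dilutions (top 30 μM, duplicate). Luminescence read after Nano-Glo HiBiT lytic reagent; % degradation relative to DMSO (high control) and 2 μM reference BRM/BRG1 degrader (low control).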

T2 sequence (P51532 whole entry, the tested form may be a part): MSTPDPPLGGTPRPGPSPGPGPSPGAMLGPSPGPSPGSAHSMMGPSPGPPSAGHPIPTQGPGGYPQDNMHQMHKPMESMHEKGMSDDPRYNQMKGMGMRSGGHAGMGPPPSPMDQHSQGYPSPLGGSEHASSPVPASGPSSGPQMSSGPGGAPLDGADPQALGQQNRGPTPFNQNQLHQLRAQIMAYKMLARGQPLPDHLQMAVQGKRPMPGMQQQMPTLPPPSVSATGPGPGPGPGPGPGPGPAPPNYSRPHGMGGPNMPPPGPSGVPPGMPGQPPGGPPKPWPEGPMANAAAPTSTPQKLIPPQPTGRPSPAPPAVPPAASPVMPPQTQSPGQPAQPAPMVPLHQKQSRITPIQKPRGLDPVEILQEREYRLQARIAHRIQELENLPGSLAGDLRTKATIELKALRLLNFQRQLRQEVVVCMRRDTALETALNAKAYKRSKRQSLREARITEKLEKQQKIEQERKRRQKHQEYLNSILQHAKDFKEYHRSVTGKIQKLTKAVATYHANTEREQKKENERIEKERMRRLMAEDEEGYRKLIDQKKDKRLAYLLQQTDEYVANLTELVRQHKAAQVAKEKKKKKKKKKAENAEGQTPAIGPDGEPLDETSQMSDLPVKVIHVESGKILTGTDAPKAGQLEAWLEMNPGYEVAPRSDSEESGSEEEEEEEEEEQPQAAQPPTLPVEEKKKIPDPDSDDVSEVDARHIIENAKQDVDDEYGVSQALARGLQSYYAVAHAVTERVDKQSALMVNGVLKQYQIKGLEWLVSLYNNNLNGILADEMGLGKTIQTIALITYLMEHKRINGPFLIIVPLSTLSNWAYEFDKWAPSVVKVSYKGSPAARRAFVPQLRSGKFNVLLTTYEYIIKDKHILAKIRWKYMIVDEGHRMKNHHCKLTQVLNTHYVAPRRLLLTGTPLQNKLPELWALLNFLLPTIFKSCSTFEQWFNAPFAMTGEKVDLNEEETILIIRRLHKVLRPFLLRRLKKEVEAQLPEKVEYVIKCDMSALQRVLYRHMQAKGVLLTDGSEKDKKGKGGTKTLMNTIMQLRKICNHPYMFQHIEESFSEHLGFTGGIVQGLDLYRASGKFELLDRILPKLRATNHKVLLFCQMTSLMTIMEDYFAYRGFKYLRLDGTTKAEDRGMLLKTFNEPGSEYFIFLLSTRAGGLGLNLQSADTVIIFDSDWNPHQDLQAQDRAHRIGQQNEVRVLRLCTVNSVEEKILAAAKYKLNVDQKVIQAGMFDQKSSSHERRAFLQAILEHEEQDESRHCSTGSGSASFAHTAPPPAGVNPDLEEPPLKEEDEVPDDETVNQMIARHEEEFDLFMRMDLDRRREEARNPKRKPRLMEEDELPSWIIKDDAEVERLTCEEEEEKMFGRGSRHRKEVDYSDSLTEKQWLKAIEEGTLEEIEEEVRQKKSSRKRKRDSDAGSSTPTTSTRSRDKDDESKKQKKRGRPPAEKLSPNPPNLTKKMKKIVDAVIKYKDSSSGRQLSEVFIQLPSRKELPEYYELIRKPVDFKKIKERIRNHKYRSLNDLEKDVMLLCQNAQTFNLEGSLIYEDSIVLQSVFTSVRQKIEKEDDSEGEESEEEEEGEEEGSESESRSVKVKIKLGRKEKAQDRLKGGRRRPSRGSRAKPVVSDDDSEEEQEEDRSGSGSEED
T1 sequence (P51531 whole entry, the tested form may be a part): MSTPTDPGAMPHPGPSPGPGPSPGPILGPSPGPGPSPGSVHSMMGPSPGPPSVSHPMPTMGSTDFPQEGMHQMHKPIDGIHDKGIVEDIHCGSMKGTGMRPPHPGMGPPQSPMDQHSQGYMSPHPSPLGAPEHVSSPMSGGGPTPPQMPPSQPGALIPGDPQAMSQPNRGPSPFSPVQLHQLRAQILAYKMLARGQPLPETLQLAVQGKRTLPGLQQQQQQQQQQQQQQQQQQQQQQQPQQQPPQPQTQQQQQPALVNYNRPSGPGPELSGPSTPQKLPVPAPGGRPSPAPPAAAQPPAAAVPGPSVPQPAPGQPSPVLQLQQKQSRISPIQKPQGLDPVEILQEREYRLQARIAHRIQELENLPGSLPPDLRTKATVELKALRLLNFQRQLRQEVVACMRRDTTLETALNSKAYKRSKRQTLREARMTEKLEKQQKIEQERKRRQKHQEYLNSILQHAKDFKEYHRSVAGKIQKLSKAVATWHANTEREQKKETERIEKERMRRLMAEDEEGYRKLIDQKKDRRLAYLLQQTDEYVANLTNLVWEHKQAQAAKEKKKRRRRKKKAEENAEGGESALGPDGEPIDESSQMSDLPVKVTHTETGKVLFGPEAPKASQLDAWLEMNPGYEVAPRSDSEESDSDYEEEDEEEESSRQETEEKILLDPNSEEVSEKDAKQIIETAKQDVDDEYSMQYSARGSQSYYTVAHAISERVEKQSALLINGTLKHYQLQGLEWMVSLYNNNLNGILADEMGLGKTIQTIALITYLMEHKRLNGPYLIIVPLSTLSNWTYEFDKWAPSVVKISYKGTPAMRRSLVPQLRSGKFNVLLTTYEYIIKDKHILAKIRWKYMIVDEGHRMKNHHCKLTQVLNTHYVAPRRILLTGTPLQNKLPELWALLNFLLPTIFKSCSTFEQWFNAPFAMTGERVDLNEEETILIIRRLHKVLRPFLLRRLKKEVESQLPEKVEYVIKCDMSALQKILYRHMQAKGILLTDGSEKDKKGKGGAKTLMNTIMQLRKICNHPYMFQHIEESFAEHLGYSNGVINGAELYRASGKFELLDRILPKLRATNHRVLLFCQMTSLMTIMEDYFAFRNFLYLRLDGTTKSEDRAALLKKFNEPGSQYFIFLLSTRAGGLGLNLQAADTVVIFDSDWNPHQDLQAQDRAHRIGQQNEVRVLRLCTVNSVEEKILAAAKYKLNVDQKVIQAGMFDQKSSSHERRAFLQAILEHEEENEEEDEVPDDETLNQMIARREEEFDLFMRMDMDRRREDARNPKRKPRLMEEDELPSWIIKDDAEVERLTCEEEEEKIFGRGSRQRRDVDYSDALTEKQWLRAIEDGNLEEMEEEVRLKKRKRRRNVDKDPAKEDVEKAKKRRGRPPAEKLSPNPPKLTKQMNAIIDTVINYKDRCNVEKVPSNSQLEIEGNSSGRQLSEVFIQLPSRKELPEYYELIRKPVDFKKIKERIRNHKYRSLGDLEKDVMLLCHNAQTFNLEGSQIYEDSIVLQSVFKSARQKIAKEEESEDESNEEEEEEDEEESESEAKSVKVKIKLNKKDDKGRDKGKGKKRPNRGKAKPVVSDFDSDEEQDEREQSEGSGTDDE

Take `Cc1ncsc1-c1ccc(CNC(=O)[C@@H]2C[C@@H](O)CN2C(=O)[C@@H](NC(=O)C2(F)CC2)C(C)(C)C)c(OCCN2CCC(c3cc4nnc(-c5ccccc5O)cc4s3)CC2)c1` [Compound 77, (2S,4R)-1-((S)-2-(1-fluorocyclopropane-1-carboxamido)-3,3-dimethylbutanoyl)-4-hydroxy-N-(2-(2-(4-(3-(2-hydroxyphenyl)thieno[3,2-c]pyridazin-6-yl)piperidin-1-yl)ethoxy)-4-(4-methylthiazol-5-yl)benzyl)pyrrolidine-2-carboxamide]: in test [1], the “BRM HiBit Degradation Maximum (%)” value is “C (“C” indicates maximum degradation < 50%)” and the DC50 was not below 1 µM. Further, in test [2], the Dmax is less than 50% and the DC50 is not below 1 µM.

For `Cc1ncsc1-c1ccc(CNC(=O)[C@@H]2C[C@@H](O)CN2C(=O)[C@@H](NC(=O)CCCC(=O)N2CC(c3cc4cc(-c5ccccc5O)nnc4s3)C2)C(C)(C)C)cc1` [Compound 31], in test [1], the “BRM HiBit Degradation Maximum (%)” value is given as “C (“C” indicates maximum degradation < 50%)” and the DC50 was not below 0.1 µM. For the same compound, in test [2], the Dmax was less than 50% and the DC50 is not below 1 µM.

For `Cc1ncsc1-c1ccc([C@H](C)NC(=O)[C@@H]2C[C@@H](O)CN2C(=O)[C@@H](c2cc(N3CCC(CN4CC(c5cc6nnc(-c7ccccc7O)cc6s5)C4)CC3)no2)C(C)C)cc1` [Compound 103, (2S,4R)-4-hydroxy-1-((R)-2-(3-(4-((3-(3-(2-hydroxyphenyl)thieno[3,2-c]pyridazin-6-yl)azetidin-1-yl)methyl)piperidin-1-yl)isoxazol-5-yl)-3-methylbutanoyl)-N-((S)-1-(4-(4-methylthiazol-5-yl)phenyl)ethyl)pyrrolidine-2-carboxamide], in test [1], the “BRM HiBit Degradation Maximum (%)” value is listed as “A (“A” indicates maximum degradation ≥ 75%)” and the DC50 is not below 0.01 µM. Further, in test [2], the Dmax is less than 50% and the DC50 is not below 1 µM.

As to `Cc1ncsc1-c1ccc([C@H](C)NC(=O)[C@@H]2C[C@@H](O)CN2C(=O)[C@@H](c2cc(OCCN3C[C@H]4C[C@@H]3C[C@@H]4c3sc4nnc(-c5ccccc5O)cc4c3C)no2)C(C)C)cc1` [Compound 58, (2S,4R)-4-hydroxy-1-[(2R)-2-(3-{2-[(1R,4S,5S)-5-[3-(2-hydroxyphenyl)-5-methylthieno[2,3-c]pyridazin-6-yl]-2-azabicyclo[2.2.1]heptan-2-yl]ethoxy}-1,2-oxazol-5-yl)-3-methylbutanoyl]-N-[(1S)-1-[4-(4-methyl-1,3-thiazol-5-yl)phenyl]ethyl]pyrrolidine-2-carboxamide], in test [1], the “BRM HiBit Degradation Maximum (%)” value was “A (“A” indicates maximum degradation ≥ 75%)” and the DC50 is not below 0.01 µM. For the same compound, in test [2], the Dmax is less than 50% and the DC50 was not below 1 µM.

Take `Cc1ncsc1-c1ccc(CNC(=O)[C@H]2C[C@H](O)CN2C(=O)[C@H](NC(=O)CCN2CC(c3sc4nnc(-c5ccccc5O)cc4c3C)C2)C(C)(C)C)cc1` [Compound 17]: in test [1], the “BRM HiBit Degradation Maximum (%)” value was “C (“C” indicates maximum degradation < 50%)” and the DC50 was not below 1 µM. Also, in test [2], the Dmax is less than 50% and the DC50 was not below 1 µM.

For the compound `Cc1ncsc1-c1ccc([C@H](C)NC(=O)[C@@H]2C[C@@H](O)CN2C(=O)[C@@H](c2cc(N3CCC(N4CCc5sc6nnc(-c7ccccc7O)cc6c5C4)CC3)no2)C(C)C)cc1` [Compound 70, (2S,4R)-4-hydroxy-1-((R)-2-(3-(4-(3-(2-hydroxyphenyl)-7,8-dihydropyrido[3′,4′:4,5]thieno[2,3-c]pyridazin-6(5H)-yl)piperidin-1-yl)isoxazol-5-yl)-3-methylbutanoyl)-N-((S)-1-(4-(4-methylthiazol-5-yl)phenyl)ethyl)pyrrolidine-2-carboxamide], in test [1], the “BRM HiBit Degradation Maximum (%)” value is given as “C (“C” indicates maximum degradation < 50%)” and the DC50 is not below 1 µM. In test [2], the Dmax is less than 50% and the DC50 was not below 1 µM.

As to `Cc1ncsc1-c1ccc([C@H](C)NC(=O)[C@@H]2C[C@@H](O)CN2C(=O)[C@@H](c2cc(N3C[C@@H]4C[C@H]3CN4C(=O)[C@@H]3CCc4sc5nnc(-c6ccccc6O)cc5c4C3)no2)C(C)C)cc1` [Compound 44, (2S,4R)-4-hydroxy-1-((R)-2-(3-((1S,4S)-5-((R)-3-(2-hydroxyphenyl)-5,6,7,8-tetrahydrobenzo[4,5]thieno[2,3-c]pyridazine-6-carbonyl)-2,5-diazabicyclo[2.2.1]heptan-2-yl)isoxazol-5-yl)-3-methylbutanoyl)-N-((S)-1-(4-(4-methylthiazol-5-yl)phenyl)ethyl)pyrrolidine-2-carboxamide], in test [1], the “BRM HiBit Degradation Maximum (%)” value was “B (“B” indicates maximum degradation ≥ 50%)” and the DC50 is not below 0.1 µM. For the same compound, in test [2], the Dmax was less than 50% and the DC50 was not below 1 µM.

In the case of `Cc1ncsc1-c1ccc([C@H](C)NC(=O)[C@@H]2C[C@@H](O)CN2C(=O)[C@@H](c2cc(N3CCC(CN4CCC(c5sc6nnc(-c7ccccc7O)cc6c5C)CC4)CC3)no2)C(C)C)cc1` [Compound 94, (2S,4R)-4-hydroxy-1-((R)-2-(3-(4-((4-(3-(2-hydroxyphenyl)-5-methylthieno[2,3-c]pyridazin-6-yl)piperidin-1-yl)methyl)piperidin-1-yl)isoxazol-5-yl)-3-methylbutanoyl)-N-((S)-1-(4-(4-methylthiazol-5-yl)phenyl)ethyl)pyrrolidine-2-carboxamide], in test [1], the “BRM HiBit Degradation Maximum (%)” value is on record as “A (“A” indicates maximum degradation ≥ 75%)” and the DC50 is less than 0.01 µM. In test [2], the Dmax was less than 50% and the DC50 is not below 1 µM.

In the case of `Cc1ncsc1-c1ccc([C@H](C)NC(=O)[C@@H]2C[C@@H](O)CN2C(=O)[C@@H](c2cc(OCCN3CC(c4csc5nnc(-c6ccccc6O)cc45)C3)no2)C(C)C)cc1` [Compound 102, (2S,4R)-4-hydroxy-1-((R)-2-(3-(2-(3-(3-(2-hydroxyphenyl)thieno[2,3-c]pyridazin-5-yl)azetidin-1-yl)ethoxy)isoxazol-5-yl)-3-methylbutanoyl)-N-((S)-1-(4-(4-methylthiazol-5-yl)phenyl)ethyl)pyrrolidine-2-carboxamide], in test [1], the “BRM HiBit Degradation Maximum (%)” value is reported as “C (“C” indicates maximum degradation < 50%)” and the DC50 was not below 1 µM. Moreover, in test [2], the Dmax is less than 50% and the DC50 is not below 1 µM.

On to `Cc1ncsc1-c1ccc(CNC(=O)[C@@H]2C[C@@H](O)CN2C(=O)[C@H](c2cc(N3CCOCC3)no2)C(C)C)c(OCCCN2CCC(c3sc4nnc(-c5ccccc5O)cc4c3C)CC2)c1` (single isomer, unassigned) [Compound 55], for which, in test [1], the “BRM HiBit Degradation Maximum (%)” value is “A (“A” indicates maximum degradation ≥ 75%)” and the DC50 is not below 1 µM. Moreover, in test [2], the Dmax is less than 50% and the DC50 is not below 1 µM.

Turning to `Cc1ncsc1-c1ccc(CNC(=O)[C@@H]2C[C@@H](O)CN2C(=O)[C@@H](NC(=O)C2(F)CC2)C(C)(C)C)c(OCC(=O)N2CCC(c3sc4nnc(-c5ccccc5O)cc4c3C)CC2)c1` [Compound 82, (2S,4R)-1-((S)-2-(1-fluorocyclopropane-1-carboxamido)-3,3-dimethylbutanoyl)-4-hydroxy-N-(2-(2-(4-(3-(2-hydroxyphenyl)-5-methylthieno[2,3-c]pyridazin-6-yl)piperidin-1-yl)-2-oxoethoxy)-4-(4-methylthiazol-5-yl)benzyl)pyrrolidine-2-carboxamide], in test [1], the “BRM HiBit Degradation Maximum (%)” value is on record as “C (“C” indicates maximum degradation < 50%)” and the DC50 is not below 1 µM. Also, in test [2], the Dmax is less than 50% and the DC50 is not below 1 µM.

In the case of `Cc1ncsc1-c1ccc(CNC(=O)[C@@H]2C[C@@H](O)CN2C(=O)[C@@H](NC(=O)CCN2CCC(c3cc4cc(-c5ccccc5O)nnc4s3)CC2)C(C)(C)C)cc1` [Compound 24], in test [1], the “BRM HiBit Degradation Maximum (%)” value is recorded as “C (“C” indicates maximum degradation < 50%)” and the DC50 is not below 1 µM. Moreover, in test [2], the Dmax was less than 50% and the DC50 was not below 1 µM.

Turning to `Cc1ncsc1-c1ccc([C@H](C)NC(=O)[C@@H]2C[C@@H](O)CN2C(=O)[C@@H](c2cc(N3CCN(C(=O)CN4CC(c5cc6cc(-c7ccccc7O)nnc6s5)C4)CC3)no2)C(C)C)cc1` [Compound 3, (2S,4R)-4-hydroxy-1-[(2R)-2-{3-[4-(2-{3-[3-(2-hydroxyphenyl)thieno[2,3-c]pyridazin-6-yl]azetidin-1-yl}acetyl)piperazin-1-yl]-1,2-oxazol-5-yl}-3-methylbutanoyl]-N-[(1S)-1-[4-(4-methyl-1,3-thiazol-5-yl)phenyl]ethyl]pyrrolidine-2-carboxamide], in test [1], the “BRM HiBit Degradation Maximum (%)” value is “A (“A” indicates maximum degradation ≥ 75%)” and the DC50 is not below 0.1 µM. Moreover, in test [2], the Dmax is less than 50% and the DC50 was not below 1 µM.

On to `Cc1ncsc1-c1ccc([C@H](C)NC(=O)[C@@H]2C[C@@H](O)CN2C(=O)[C@@H](c2cc(OCCN3C[C@H]4C[C@@H](C3)[C@@H]4c3sc4nnc(-c5ccccc5O)cc4c3C)no2)C(C)C)cc1` [Compound 63, (2S,4R)-4-hydroxy-1-((R)-2-(3-(2-((1R,5S,6R)-6-(3-(2-hydroxyphenyl)-5-methylthieno[2,3-c]pyridazin-6-yl)-3-azabicyclo[3.1.1]heptan-3-yl)ethoxy)isoxazol-5-yl)-3-methylbutanoyl)-N-((S)-1-(4-(4-methylthiazol-5-yl)phenyl)ethyl)pyrrolidine-2-carboxamide], for which, in test [1], the “BRM HiBit Degradation Maximum (%)” value was “A (“A” indicates maximum degradation ≥ 75%)” and the DC50 is not below 0.01 µM. In test [2], the Dmax is less than 50% and the DC50 is not below 1 µM.
